Reference: ChEMBL document CHEMBL3580566, “Identification of 2-[4-[(4-Methoxyphenyl)methoxy]-phenyl]acetonitrile and Derivatives as Potent Oct3/4 Inducers” (2015)
Values belong to the molecule of their own block, whether it stands above or below them. Activity calls are given as the source filed them. The rule behind the calls is not given here.

What was measured:
[1] = biological target: POU domain, class 5, transcription factor 1 (Homo sapiens) (UniProt Q01860); assay: Activation of human Oct3/4 in HEK293 cells transfected with firefly luciferase gene assessed as relative luciferase activity after 72 hrs by luminometer plate reader relative to DMSO control; assay type: cell-based
POU domain, class 5, transcription factor 1 (Homo sapiens), sequence (Q01860 whole entry, the tested form may be a part): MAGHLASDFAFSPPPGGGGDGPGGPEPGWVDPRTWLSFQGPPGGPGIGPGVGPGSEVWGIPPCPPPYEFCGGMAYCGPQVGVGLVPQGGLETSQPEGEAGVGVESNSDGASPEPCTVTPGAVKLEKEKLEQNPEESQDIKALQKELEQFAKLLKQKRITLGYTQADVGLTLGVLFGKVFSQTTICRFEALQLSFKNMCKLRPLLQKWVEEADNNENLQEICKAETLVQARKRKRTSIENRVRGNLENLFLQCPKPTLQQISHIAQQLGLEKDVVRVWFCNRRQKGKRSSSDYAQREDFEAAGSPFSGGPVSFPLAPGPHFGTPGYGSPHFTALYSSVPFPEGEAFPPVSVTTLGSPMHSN

[2] = tested on: HEK293; assay: Induction of human Sox2 protein expression in HEK293 cells assessed as increase in protein expression at 10 uM after 96 hrs by immunoblotting analysis relative to DMSO control; assay type: functional, cell-based
[3] = tested on: Fibroblast; assay: Induction of human Oct3/4 protein expression in human adult primary fibroblasts assessed as increase in protein expression at 10 uM after 72 hrs by immunoblotting analysis relative to control; assay type: functional, cell-based
[4] = tested on: HEK293; assay: Induction of human Oct3/4 protein expression in HEK293 cells assessed as increase in protein expression after 48 hrs by immunoblotting analysis relative to DMSO control; assay type: functional, cell-based
[5] = biological target: POU domain, class 5, transcription factor 1 (Homo sapiens) (UniProt Q01860); assay: Activation of human Oct3/4 in HEK293 cells transfected with firefly luciferase gene assessed as relative luciferase activity at 5 uM by luminometer plate reader relative to DMSO control; assay type: cell-based; settings: TDE = time-dependent effect
[6] = tested on: HEK293; assay: Induction of human Sox2 protein expression in HEK293 cells assessed as increase in protein expression at 0.5 to 20 uM after 48 hrs by immunoblotting analysis relative to DMSO control; assay type: functional, cell-based
[7] = biological target: POU domain, class 5, transcription factor 1 (Homo sapiens) (UniProt Q01860); assay: Activation of human Oct3/4 in HEK293 cells transfected with firefly luciferase gene assessed as relative luciferase activity at 5 uM after 48 hrs by luminometer plate reader relative to DMSO control; assay type: cell-based
[8] = biological target: POU domain, class 5, transcription factor 1 (Homo sapiens) (UniProt Q01860); assay: Activation of human Oct3/4 in HEK293 cells transfected with firefly luciferase gene assessed as luciferase signal by luminometer plate reader relative to DMSO control; assay type: cell-based
[9] = tested on: HEK293; assay: Induction of human Oct3/4 expression in HEK293 cells transfected with firefly luciferase gene assessed as increase in mRNA level at 20 uM after 72 hrs by qRT-PCT analysis; assay type: functional
[10] = tested on: HEK293; assay: Induction of human Sox2 protein expression in HEK293 cells assessed as increase in protein expression at 10 uM after 48 hrs by immunoblotting analysis relative to DMSO control; assay type: functional, cell-based
[11] = biological target: POU domain, class 5, transcription factor 1 (Homo sapiens) (UniProt Q01860); assay: Activation of human Oct3/4 in HEK293 cells transfected with firefly luciferase gene assessed as relative luciferase activity after 48 to 72 hrs by luminometer plate reader relative to DMSO control; assay type: cell-based
[12] = tested on: HEK293; assay: Induction of human Oct3/4 protein expression in HEK293 cells assessed as increase in protein expression at 10 uM after 96 hrs by immunoblotting analysis relative to DMSO control; assay type: functional, cell-based
[13] = tested on: HEK293; assay: Induction of human Oct3/4 protein expression in HEK293 cells assessed as increase in protein expression at 10 uM after 24 hrs by immunoblotting analysis relative to DMSO control; assay type: functional, cell-based
[14] = tested on: HEK293; assay: Induction of human Oct3/4 protein expression in HEK293 cells assessed as increase in protein expression at 6 uM after 48 hrs by immunoblotting analysis relative to DMSO control; assay type: functional, cell-based
[15] = biological target: Homeobox protein NANOG (Homo sapiens) (UniProt Q9H9S0); assay: Activation of human Nanog in NCCIT cells transfected with firefly luciferase gene assessed as relative luciferase activity up to 72 hrs by luminometer plate reader relative to DMSO control; assay type: cell-based
Homeobox protein NANOG (Homo sapiens), sequence (Q9H9S0 whole entry, the tested form may be a part): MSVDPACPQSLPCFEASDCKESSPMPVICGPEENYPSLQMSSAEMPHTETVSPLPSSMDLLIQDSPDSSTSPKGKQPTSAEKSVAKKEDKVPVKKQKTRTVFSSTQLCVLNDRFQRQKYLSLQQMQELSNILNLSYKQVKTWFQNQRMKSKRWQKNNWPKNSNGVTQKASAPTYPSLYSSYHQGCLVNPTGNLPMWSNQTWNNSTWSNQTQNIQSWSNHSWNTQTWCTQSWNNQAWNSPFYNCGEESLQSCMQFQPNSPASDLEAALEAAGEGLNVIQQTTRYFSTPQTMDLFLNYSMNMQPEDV

[16] = biological target: POU domain, class 5, transcription factor 1 (Homo sapiens) (UniProt Q01860); assay: Activation of human Oct3/4 in HEK293 cells transfected with firefly luciferase gene assessed as relative luciferase activity at 5 uM after 72 hrs by luminometer plate reader relative to DMSO control; assay type: cell-based
[17] = tested on: HEK293; assay: Induction of human Nanog protein expression in HEK293 cells assessed as increase in protein expression at 0.5 to 20 uM after 48 hrs by immunoblotting analysis relative to DMSO control; assay type: functional, cell-based
[18] = tested on: HFF; assay: Induction of human Oct3/4 protein expression in human neonatal foreskin fibroblasts assessed as increase in protein expression at 10 uM after 72 hrs by immunoblotting analysis relative to control; assay type: functional, cell-based
[19] = tested on: HEK293; assay: Induction of human Oct3/4 expression in HEK293 cells transfected with firefly luciferase gene assessed as increase in mRNA level at 10 uM after 72 hrs by qRT-PCT analysis; assay type: functional
[20] = tested on: HEK293; assay: Induction of human Sox2 protein expression in HEK293 cells assessed as increase in protein expression at 10 uM after 24 hrs by immunoblotting analysis relative to DMSO control; assay type: functional, cell-based
[21] = biological target: POU domain, class 5, transcription factor 1 (Homo sapiens) (UniProt Q01860); assay: Activation of human Oct3/4 in NCCIT cells transfected with firefly luciferase gene assessed as relative luciferase activity after 72 hrs by luminometer plate reader relative to DMSO control; assay type: cell-based
[22] = tested on: HEK293; assay: Induction of human Oct3/4 protein expression in HEK293 cells assessed as increase in protein expression at 10 uM after 48 hrs by immunoblotting analysis relative to DMSO control; assay type: functional, cell-based
[23] = tested on: Fibroblast; assay: Induction of human Rex1 gene expression in human adult primary fibroblasts assessed as increase in mRNA level at 20 uM after 48 hrs by qRT-PCR analysis relative to control; assay type: functional
[24] = tested on: NCCIT; assay: Induction of Oct3/4 accumulation in human NCCIT cells at 10 uM after 48 hrs by immunolotting analysis; assay type: functional, cell-based
[25] = tested on: Fibroblast; assay: Induction of human Nanog protein expression in human adult primary fibroblasts assessed as increase in protein level at 20 uM after 5 days by Hoechst 33258 staining based immunostaining relative to control; assay type: functional, cell-based
[26] = tested on: Fibroblast; assay: Induction of human Oct3/4 gene expression in human adult primary fibroblasts assessed as increase in mRNA level at 20 uM after 48 hrs by qRT-PCR analysis relative to control; assay type: functional
[27] = tested on: Fibroblast; assay: Induction of human Nanog gene expression in human adult primary fibroblasts assessed as increase in mRNA level at 20 uM after 48 hrs by qRT-PCR analysis relative to control; assay type: functional
[28] = tested on: Fibroblast; assay: Induction of human E-Cadherin level in human adult primary fibroblasts assessed as increase in protein level at 20 uM after 72 hrs by FACS analysis relative to control; assay type: functional, cell-based
[29] = tested on: Fibroblast; assay: Induction of cell cycle arrest in human adult primary fibroblasts assessed as accumulation of cells at G1 phase at 20 uM after 5 days by propidium iodide staining assay (reference value: 74%); assay type: functional
[30] = tested on: Fibroblast; assay: Induction of human KLF4 protein expression in human adult primary fibroblasts assessed as increase in protein level at 20 uM after 5 days by Hoechst 33258 staining based immunostaining relative to control; assay type: functional, cell-based
[31] = tested on: Fibroblast; assay: Induction of human Klf4 gene expression in human adult primary fibroblasts assessed as increase in mRNA level at 20 uM after 48 hrs by qRT-PCR analysis relative to control; assay type: functional
[32] = tested on: Fibroblast; assay: Induction of human Oct3/4 protein expression in human adult primary fibroblasts assessed as increase in protein expression at 20 uM after 72 hrs by immunoblotting analysis relative to control; assay type: functional, cell-based
[33] = tested on: Fibroblast; assay: Induction of human Oct3/4 and Sox2 protein expression in human adult primary fibroblasts assessed as positive cells normalized to total number of cells; assay type: functional, cell-based
[34] = tested on: NCCIT; assay: Induction of Nanog accumulation in human NCCIT cells at 10 uM after 48 hrs by immunolotting analysis; assay type: functional, cell-based
[35] = tested on: Fibroblast; assay: Induction of human Nanog protein expression in human adult primary fibroblasts assessed as increase in protein expression at 20 uM after 72 hrs by immunoblotting analysis relative to control; assay type: functional, cell-based
[36] = tested on: Fibroblast; assay: Induction of cell cycle arrest in human adult primary fibroblasts assessed as accumulation of cells at S phase at 20 uM after 5 days by propidium iodide staining assay (reference value: 2%); assay type: functional
[37] = tested on: Fibroblast; assay: Induction of human Sox2 protein expression in human adult primary fibroblasts assessed as increase in protein expression at 20 uM after 72 hrs by immunoblotting analysis relative to control; assay type: functional, cell-based
[38] = tested on: Fibroblast; assay: Induction of human Oct3/4 protein expression in human adult primary fibroblasts assessed as increase in protein level at 20 uM after 5 days by Hoechst 33258 staining based immunostaining relative to control; assay type: functional, cell-based
[39] = tested on: Fibroblast; assay: Induction of human Lin28 protein expression in human adult primary fibroblasts assessed as increase in protein expression at 20 uM after 72 hrs by immunoblotting analysis relative to control; assay type: functional, cell-based
[40] = tested on: Fibroblast; assay: Induction of human Oct3/4 protein expression in human adult primary fibroblasts assessed as positive cells normalized to total number of cells; assay type: functional
[41] = tested on: Fibroblast; assay: Induction of human Sox2 protein expression in human adult primary fibroblasts assessed as increase in protein level at 20 uM after 5 days by Hoechst 33258 staining based immunostaining relative to control; assay type: functional, cell-based
[42] = tested on: Fibroblast; assay: Induction of human c-Myc gene expression in human adult primary fibroblasts assessed as increase in mRNA level at 20 uM after 48 hrs by qRT-PCR analysis relative to control; assay type: functional
[43] = tested on: HeLa; assay: Induction of Nanog accumulation in human HeLa cells at 10 uM after 48 hrs by immunolotting analysis; assay type: functional, cell-based
[44] = biological target: POU domain, class 5, transcription factor 1 (Homo sapiens) (UniProt Q01860); assay: Activation of human Oct3/4 in human adult primary fibroblasts at 20 uM by immunoblotting analysis relative to control; settings: TDE = time-dependent effect
[45] = tested on: Fibroblast; assay: Induction of human Sox2 protein expression in human adult primary fibroblasts assessed as positive cells normalized to total number of cells; assay type: functional
[46] = tested on: HeLa; assay: Induction of Oct3/4 accumulation in human HeLa cells at 10 uM after 48 hrs by immunolotting analysis; assay type: functional, cell-based

Structure (SMILES): Cc1ccc(COc2ccc(CC#N)cc2)cc1
RLU [1]: 2
RLU [21]: 2.26

Structure (SMILES): N#Cc1ccc(OCc2ccc(F)cc2)cc1
RLU [1]: 5.83
RLU [21]: 2.26

Structure (SMILES): N#CCc1ccc(OCc2ccc(-c3ccccc3)cc2)cc1
RLU [1]: 0.84
RLU [21]: 0.73

Structure (SMILES): N#CCc1ccc(OCc2ccc(C#N)cc2)cc1
RLU [1]: 1.79
RLU [21]: 1.88

Structure (SMILES): N#Cc1ccc(OCc2ccc([N+](=O)[O-])cc2)cc1
RLU [1]: 2.65
RLU [21]: 1.08

Structure (SMILES): N#CCc1ccc(OCc2ccc([N+](=O)[O-])cc2)cc1
RLU [1]: 4.02
RLU [21]: 2.61

Structure (SMILES): COc1ccc(COc2ccc(C#N)cc2)cc1
RLU [1]: 3
RLU [21]: 0.99

Second part, led by results:

RLU [1]: 3.85
Activity [5]: tde
fold change (FC) [7]: 2
fold change (FC) [8]: 5
Activity [11]: Dose-dependent effect
Activity [15]: Active
fold change (FC) [16]: 3
RLU [21]: 2.68
Structure (SMILES): COc1ccc(COc2ccc(CC#N)cc2)cc1
Activity [2]: Active
Activity [3]: Active
Activity [4]: Dose-dependent effect
Activity [6]: Active
fold change (FC) [9]: 4
Activity [10]: Active
Activity [12]: Active
Activity [13]: Active
Activity [14]: Active
Activity [17]: Active
Activity [18]: Active
fold change (FC) [19]: 2.5
Activity [20]: Active
Activity [22]: Active

RLU [1]: 6.58
Activity [15]: Active
Activity [44]: tde
RLU [21]: 4.02
Structure (SMILES): N#CCc1ccc(OCc2ccc(F)cc2)cc1
fold change (FC) [23]: 1.3
Activity [24]: Active
Activity [25]: Active
fold change (FC) [26]: 7
fold change (FC) [27]: 12
Activity [28]: Active
Activity [29]: 66%
Activity [30]: Active
fold change (FC) [31]: 6
Activity [32]: Active
Activity [33]: Active
Activity [34]: Active
Activity [35]: Active
Activity [36]: 7%
Activity [37]: Active
Activity [38]: Active
Activity [39]: Active
Activity [40]: 6%
Activity [41]: Active
fold change (FC) [42]: 2
Activity [43]: Active
Activity [45]: 9%
Activity [46]: Active

RLU [1]: 3.4
RLU [21]: 1.5
Structure (SMILES): N#Cc1ccc(OCc2ccc(OC(F)(F)F)cc2)cc1

RLU [1]: 4.9
RLU [21]: 2.14
Structure (SMILES): N#CCc1ccc(OCc2ccc(OC(F)(F)F)cc2)cc1
